Test results taken from PubChem BioAssay (NCI).
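Cells were grown in 96-well plates and exposed to each compound for 48 hours at five concentrations; endpoints were interpolated linearly between bracketing concentrations, or set to the highest concentration if not reached. At the TGI there is no net growth.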

Columns and labels:
Test in all cases: NCI tumour cell line growth inhibition, 48 h
[1] = tested on: 786-0 renal
[2] = tested on: A498 renal
[3] = tested on: A549 NSCLC
[4] = tested on: ACHN renal
[5] = tested on: BT-549 breast
[6] = tested on: CAKI-1 renal
[7] = tested on: CCRF-CEM leukemia
[8] = tested on: COLO 205 colon
[9] = tested on: DLD-1 colon
[10] = tested on: DMS 114 small cell lung
[11] = tested on: DMS 273 small cell lung
[12] = tested on: DU-145 prostate
[13] = tested on: EKVX NSCLC
[14] = tested on: HCC-2998 colon
[15] = tested on: HCT-116 colon
[16] = tested on: HCT-15 colon
[17] = tested on: HL-60(TB) leukemia
[18] = tested on: HOP-18 NSCLC
[19] = tested on: HOP-62 NSCLC
[20] = tested on: HOP-92 NSCLC
[21] = tested on: HS 578T breast
[22] = tested on: HT29 colon
[23] = tested on: IGROV1 ovarian
[24] = tested on: K-562 leukemia
[25] = tested on: KM12 colon
[26] = tested on: KM20L2 colon
[27] = tested on: LOX IMVI melanoma
[28] = tested on: M14 melanoma
[29] = tested on: M19-MEL melanoma
[30] = tested on: MALME-3M melanoma
[31] = tested on: MCF7 breast
[32] = tested on: MDA-MB-231 breast
[33] = tested on: MDA-MB-435
[34] = tested on: MDA-N
[35] = tested on: MOLT-4 leukemia
[36] = tested on: NCI-H226 lung
[37] = tested on: NCI-H23 lung
[38] = tested on: NCI-H460 lung
[39] = tested on: NCI-H522 lung
[40] = tested on: NCI/ADR-RES ovarian
[41] = tested on: OVCAR-3 ovarian
[42] = tested on: OVCAR-4 ovarian
[43] = tested on: OVCAR-5 ovarian
[44] = tested on: OVCAR-8 ovarian
[45] = tested on: P388 leukemia
[46] = tested on: P388/ADR leukemia
[47] = tested on: PC-3 prostate
[48] = tested on: RPMI-8226 leukemia
[49] = tested on: RXF 393 renal
[50] = tested on: SF-268 CNS
[51] = tested on: SF-295 CNS
[52] = tested on: SF-539 CNS
[53] = tested on: SK-MEL-2 melanoma
[54] = tested on: SK-MEL-28 melanoma
[55] = tested on: SK-MEL-5 melanoma
[56] = tested on: SK-OV-3 ovarian
[57] = tested on: SN12C renal
[58] = tested on: SN12K1 renal
[59] = tested on: SNB-19 CNS
[60] = tested on: SNB-75 CNS
[61] = tested on: SNB-78 CNS
[62] = tested on: SW-620 colon
[63] = tested on: T-47D breast
[64] = tested on: TK-10 renal
[65] = tested on: U251 CNS
[66] = tested on: UACC-257 melanoma
[67] = tested on: UACC-62 melanoma
[68] = tested on: UO-31 renal
[69] = tested on: XF 498 CNS

`COc1cc(/C=C/C(=O)Oc2ccccc2)ccc1C(=O)O/C=C/c1ccccc1` was tested, and the TGI [1] was greater than 100 µM, the TGI [2] was greater than 21.5 µM and the TGI [3] was greater than 100 µM. It also gave a TGI [4] greater than 100 µM, a TGI [5] greater than 100 µM and a TGI [6] greater than 100 µM. It also gave a TGI [7] greater than 100 µM, a TGI [8] greater than 100 µM and a TGI [9] greater than 100 µM. It also gave a TGI [10] greater than 100 µM, a TGI [11] greater than 100 µM and a TGI [12] greater than 100 µM. It also gave a TGI [13] greater than 100 µM, a TGI [14] greater than 100 µM and a TGI [15] greater than 100 µM. For the same compound, the TGI [16] was greater than 100 µM, the TGI [17] was greater than 100 µM and the TGI [18] was greater than 100 µM. It also gave a TGI [19] greater than 100 µM, a TGI [20] greater than 100 µM and a TGI [21] greater than 100 µM. The TGI [22] was greater than 100 µM, the TGI [23] was greater than 100 µM and the TGI [24] was greater than 100 µM. For the same compound, the TGI [25] was greater than 100 µM, the TGI [26] was greater than 100 µM and the TGI [27] was greater than 100 µM. For the same compound, the TGI [28] was greater than 100 µM, the TGI [29] was greater than 100 µM and the TGI [30] was greater than 100 µM. It also gave a TGI [31] greater than 100 µM, a TGI [32] greater than 100 µM and a TGI [33] greater than 100 µM. It also gave a TGI [34] greater than 100 µM, a TGI [35] greater than 100 µM and a TGI [36] greater than 100 µM. The TGI [37] was greater than 100 µM, the TGI [38] was greater than 100 µM and the TGI [39] was greater than 100 µM. For the same compound, the TGI [40] was greater than 100 µM, the TGI [41] was greater than 31.6 µM and the TGI [42] was greater than 100 µM. It also gave a TGI [43] greater than 100 µM, a TGI [44] greater than 100 µM and a TGI [45] greater than 100 µM. It also gave a TGI [46] greater than 100 µM, a TGI [47] greater than 100 µM and a TGI [48] greater than 100 µM. The TGI [49] was greater than 100 µM, the TGI [50] was greater than 100 µM and the TGI [51] was greater than 100 µM. The TGI [52] was greater than 100 µM, the TGI [53] was greater than 100 µM and the TGI [54] was greater than 100 µM. It also gave a TGI [55] greater than 100 µM, a TGI [56] greater than 100 µM and a TGI [57] greater than 100 µM. For the same compound, the TGI [58] was greater than 100 µM, the TGI [59] was greater than 100 µM and the TGI [60] was greater than 100 µM. The TGI [61] was greater than 100 µM, the TGI [62] was greater than 100 µM and the TGI [63] was greater than 100 µM. It also gave a TGI [64] greater than 100 µM, a TGI [65] greater than 100 µM and a TGI [66] greater than 100 µM. It also gave a TGI [67] greater than 100 µM, a TGI [68] greater than 100 µM and a TGI [69] greater than 100 µM.
